Results published in US20170157143A1, “NORPREGNANE DERIVATIVES FOR THE RISK REDUCTION OF BREAST CANCER” (Helix Twelve Pharmaceuticals Corporation, Inc., priority 2015, published 2017).

Assays:
breast carcinoma = assay: HLX-801 prophylactic therapy against breast cancer in at-risk subject groups compared to tamoxifen; format: in vivo, human
Procedure: Table 1: Exemplary effect of HLX-801 prophylactic therapy against breast cancer cells in at-risk subject groups compared to Tamoxifen (“TAM”) 1 mg.

[1] = Side effect profile of HLX-801; details: in vivo
Source text: The compounds are associated with the absence of the side effects that currently limit the adoption of the currently available tamoxifen and aromatase inhibition approaches by at risk individuals.

breast cancer = details: DCIS patients; cited from earlier work

CCN(CC)Cc1ccc(OCC[C@H]2CCC3C4[C@H](C)Cc5cc(O)ccc5[C@H]4CC[C@@]32C)c(OC)c1 (stereo partly drawn) [HLX-801, (7α)-21-[4-[(diethylamino)methyl]-2-methoxyphenoxy]-7-methyl-19-norpregna-1,3,5(10)-trien-3-ol 2-hydroxy-1,2,3-propanetricarboxylate]
No. of subjects developing breast carcinoma (breast carcinoma; HLX-801 1 mg, patients group 7/17): 3
No. of subjects developing breast carcinoma (breast carcinoma; HLX-801 1 mg, patients group 7/21): 2
No. of subjects developing breast carcinoma (breast carcinoma; HLX-801 1 mg, patients group 7/24): 3
No. of subjects developing breast carcinoma (breast carcinoma; HLX-801 5 mg, patients group 7/17): 1
No. of subjects developing breast carcinoma (breast carcinoma; HLX-801 5 mg, patients group 7/21): 2
No. of subjects developing breast carcinoma (breast carcinoma; HLX-801 5 mg, patients group 7/24): 2
No. of subjects developing breast carcinoma (breast carcinoma; HLX-801 10 mg, patients group 7/17): 1
No. of subjects developing breast carcinoma (breast carcinoma; HLX-801 10 mg, patients group 7/21): 1
No. of subjects developing breast carcinoma (breast carcinoma; HLX-801 10 mg, patients group 7/24): 1
No. of subjects developing breast carcinoma (breast carcinoma; HLX-801 20 mg, patients group 7/17): 1
No. of subjects developing breast carcinoma (breast carcinoma; HLX-801 20 mg, patients group 7/21): 1
No. of subjects developing breast carcinoma (breast carcinoma; HLX-801 20 mg, patients group 7/24): 1
No. of subjects developing breast carcinoma (breast carcinoma; HLX-801 40 mg, patients group 7/17): 1
No. of subjects developing breast carcinoma (breast carcinoma; HLX-801 40 mg, patients group 7/21): 1
No. of subjects developing breast carcinoma (breast carcinoma; HLX-801 40 mg, patients group 7/24): 1
No. of subjects developing breast carcinoma (breast carcinoma; HLX-801 80 mg, patients group 7/17): 1
No. of subjects developing breast carcinoma (breast carcinoma; HLX-801 80 mg, patients group 7/21): 1
No. of subjects developing breast carcinoma (breast carcinoma; HLX-801 80 mg, patients group 7/24): 1
bone loss (long-term risk of fractures) [1]: no evidence of bone loss
muscle aches [1]: no reports of muscle aches
uterine thickening (indicator of risk for treatment-induced uterine cancer) [1]: no evidence of uterine thickening
venous thrombembolism (indicator of risk for stroke) [1]: no evidence of venous thrombembolism

CC/C(=C(\c1ccccc1)c1ccc(OCCN(C)C)cc1)c1ccccc1 [TAM, Tamoxifen, reference compound]
No. of subjects developing breast carcinoma (breast carcinoma; TAM 1 mg, patients group 7/17): 12
No. of subjects developing breast carcinoma (breast carcinoma; TAM 1 mg, patients group 7/21): 11
No. of subjects developing breast carcinoma (breast carcinoma; TAM 1 mg, patients group 7/24 (# of cohorts/# of subjects per cohort)): 12
reduction of the risk to progression to breast cancer (breast cancer): 30%
